Source: patent publication US7638509B2, “Diene compounds and formulations” (priority 2003, dated 2009)
Positions count from the first letter of the chain named.

How the values were obtained:
[1] = target: T1, AR (Homo sapiens, UniProt P10275, T878A); assay: Competitive [3H]-R1881 ligand binding assay, LNCaP whole cell extracts; conditions: 1 nM [3H]-R1881, unlabeled ligand 1-10,000 nM, relative to DHT
T1 construct: LNCaP without transfection; endogenous in cells; host or cells: LNCaP
T1 sequence (P10275 1-920 T878A): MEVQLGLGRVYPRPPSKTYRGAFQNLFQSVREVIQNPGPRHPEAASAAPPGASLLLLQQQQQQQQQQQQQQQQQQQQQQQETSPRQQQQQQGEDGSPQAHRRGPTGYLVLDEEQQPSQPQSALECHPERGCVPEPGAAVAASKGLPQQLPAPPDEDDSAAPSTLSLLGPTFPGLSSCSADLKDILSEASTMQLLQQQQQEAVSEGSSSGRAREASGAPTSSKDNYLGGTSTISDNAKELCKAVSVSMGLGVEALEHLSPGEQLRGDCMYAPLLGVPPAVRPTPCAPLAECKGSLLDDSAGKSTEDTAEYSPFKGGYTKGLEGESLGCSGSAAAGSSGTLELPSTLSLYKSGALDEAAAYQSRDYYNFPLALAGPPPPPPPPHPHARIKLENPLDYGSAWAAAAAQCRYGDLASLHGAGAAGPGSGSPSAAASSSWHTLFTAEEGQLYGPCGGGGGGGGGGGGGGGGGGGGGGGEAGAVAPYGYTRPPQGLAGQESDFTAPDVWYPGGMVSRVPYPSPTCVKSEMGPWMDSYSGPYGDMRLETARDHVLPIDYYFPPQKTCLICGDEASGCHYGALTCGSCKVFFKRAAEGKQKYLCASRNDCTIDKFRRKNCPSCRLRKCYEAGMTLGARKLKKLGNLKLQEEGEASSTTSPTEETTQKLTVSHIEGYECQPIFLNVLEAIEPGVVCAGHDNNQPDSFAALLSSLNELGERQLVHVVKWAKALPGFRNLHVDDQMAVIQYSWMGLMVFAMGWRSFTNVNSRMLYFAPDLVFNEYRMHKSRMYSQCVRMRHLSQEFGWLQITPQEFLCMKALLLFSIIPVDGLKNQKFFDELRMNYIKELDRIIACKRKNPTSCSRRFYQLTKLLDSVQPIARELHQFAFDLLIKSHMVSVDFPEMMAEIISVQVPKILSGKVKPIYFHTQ
Procedure: Ligand Binding Assay. Whole cell extracts from COS-1 with transient transfection of pSG5-AR, or LNCaP without transfection, were incubated for 2 h at 37° C. with 1 nM [^3H]-synthetic androgen methyltrienolone (R1881) in the presence and absence of increasing concentrations (1-10,000 nM) of unlabeled ligands. Then, hydroxyapatite (Bio-Rad) was added and stirred for 15 min at 4° C. After centrifugation and washing, radioactivity was determined by scintillation counting.
Clinically available antiandrogens have an affinity for the AR, allowing a competition with androgens for binding. To determine whether ADEK has this common feature of AR antagonists, the competitive androgen binding assay was performed.

[2] = target: T2, wild-type AR (Homo sapiens, UniProt P10275); assay: Adiol-induced AR transcription, MMTV-Luc in PC-3 cells with pSG5-AR; assay type: cell-based; design: expressed in transfected cells; host or cells: PC-3; conditions: PC-3, 2.5 nM Adiol, compound at 1 μM
T2 sequence (P10275 1-920): T1 sequence (P10275 1-920 T878A) with A878T
Procedure: Cell Culture, Transfection, and Reporter Gene Assay. The human prostate cancer cell lines, LNCaP, PC-3, and DU145, and non-prostate cancer cell line COS-1 were maintained in RPMI or Dulbecco's modified Eagle's medium (DMEM) (Life Technologies) supplemented with 10% fetal bovine serum (FBS). Transfections and luciferase (Luc) assays were performed as previously described (Miyamoto, H., Yeh, S., Wilding, G. & Chang, C. (1998) Proc. Natl. Acad. Sci. USA 95, 7379-7384; Miyamoto, H., Rahman, M., Takatera, H., Kang, H.-Y., Yeh, S., Chang, H.-C., Nishimura, K., Fujimoto, N. & Chang, C. (2002) J. Biol. Chem. 277, 4609-4617). Briefly, cells seeded to reach a density of 50-60% confluence in 12 well tissue culture plates were transfected with 1.5 μg of DNA according to “SuperFect transfection” instructions (Qiagen). After 2-3 h incubation, cells were treated with medium supplemented with charcoal-stripped FBS containing either ethanol or ligands for 24 h. The cells were then harvested and whole cell extracts were used for Luc assay. The Luc activity was determined using a Dual-Luciferase Reporter Assay System (Promega) and luminometer.
Effect of ADEK on AR Transcription. […] (set as 100%). Values were obtained from the mean±SD of at least three determinations.

## CC(=O)O[C@H]1C=C[C@@]2(C)C(=CC[C@@H]3[C@@H]2CC[C@@]2(C)[C@H]3CCC23OCCO3)C1 [ADEK, 3β-acetoxy-17,17-ethylenedioxyandrosta-1,5-diene]
[1]
  RBA in LNCaP: 11.1
[2]
  repression of Adiol-induced AR transcription: about 43%
